Key:
Test in all cases: relative viability (nuclei count vs DMSO), 5 days (fraction); higher = more cells survive
Temozolomide + OSI-027 = compound: Cn1nnc2c(C(N)=O)ncn2c1=O [Temozolomide] + COc1cccc2cc(-c3nc([C@H]4CC[C@H](C(=O)O)CC4)n4ncnc(N)c34)[nH]c12 [OSI-027] (partner 0.5 µM)
In short: (§1)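 Lung cancer cell lines were seeded in 1536-well plates and dosed by pin tool the next day, with either a single drug or a fixed anchor-drug dose combined with five library-drug doses (not always all listed) spaced in √10 steps. Five days later, one step fixed the cells and stained their nuclei (final 0.05% Triton X-100, 1% formaldehyde, 1 ug/ml Hoechst), and nuclei were counted on 4× images. Relative viability is the nuclei count in treated wells divided by the count in vehicle wells, and each value is the median of duplicate plates.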

AZD5582 + Luminespib = compound: C[C@@H](C(=O)N[C@@H](C1CCCCC1)C(=O)N2CCC[C@H]2C(=O)N[C@@H]3[C@@H](CC4=CC=CC=C34)OCC#CC#CCO[C@@H]5CC6=CC=CC=C6[C@@H]5NC(=O)[C@@H]7CCCN7C(=O)[C@H](C8CCCCC8)NC(=O)[C@H](C)NC)NC [AZD5582] + CCNC(=O)c1noc(-c2cc(C(C)C)c(O)cc2O)c1-c1ccc(CN2CCOCC2)cc1 [Luminespib] (partner 0.01 µM)
In short: as §1

AZD5582 + Pemetrexed = compound: C[C@@H](C(=O)N[C@@H](C1CCCCC1)C(=O)N2CCC[C@H]2C(=O)N[C@@H]3[C@@H](CC4=CC=CC=C34)OCC#CC#CCO[C@@H]5CC6=CC=CC=C6[C@@H]5NC(=O)[C@@H]7CCCN7C(=O)[C@H](C8CCCCC8)NC(=O)[C@H](C)NC)NC [AZD5582] + Nc1nc2[nH]cc(CCc3ccc(C(=O)N[C@@H](CCC(=O)O)C(=O)O)cc3)c2c(=O)[nH]1 [Pemetrexed] (partner 0.2 µM)
In short: as §1

AZD5582 + Crizotinib = compound: C[C@@H](C(=O)N[C@@H](C1CCCCC1)C(=O)N2CCC[C@H]2C(=O)N[C@@H]3[C@@H](CC4=CC=CC=C34)OCC#CC#CCO[C@@H]5CC6=CC=CC=C6[C@@H]5NC(=O)[C@@H]7CCCN7C(=O)[C@H](C8CCCCC8)NC(=O)[C@H](C)NC)NC [AZD5582] + C[C@@H](Oc1cc(-c2cnn(C3CCNCC3)c2)cnc1N)c1c(Cl)ccc(F)c1Cl [Crizotinib] (partner 1 µM)
In short: as §1

Row | Cell Line | relative viability (Temozolomide + OSI-027; first compound 0.2 µM) | relative viability (Temozolomide + OSI-027; first compound 0.6325 µM) | relative viability (Temozolomide + OSI-027; first compound 2 µM) | relative viability (Temozolomide + OSI-027; first compound 6.325 µM) | relative viability (Temozolomide + OSI-027; first compound 20 µM) | relative viability (AZD5582 + Luminespib; first compound 0.001581 µM) | relative viability (AZD5582 + Luminespib; first compound 0.005 µM) | relative viability (AZD5582 + Luminespib; first compound 0.01581 µM) | relative viability (AZD5582 + Luminespib; first compound 0.05 µM) | relative viability (AZD5582 + Pemetrexed; first compound 0.001581 µM) | relative viability (AZD5582 + Pemetrexed; first compound 0.005 µM) | relative viability (AZD5582 + Pemetrexed; first compound 0.01581 µM) | relative viability (AZD5582 + Pemetrexed; first compound 0.05 µM) | relative viability (AZD5582 + Crizotinib; first compound 0.001581 µM) | relative viability (AZD5582 + Crizotinib; first compound 0.005 µM) | relative viability (AZD5582 + Crizotinib; first compound 0.01581 µM) | relative viability (AZD5582 + Crizotinib; first compound 0.05 µM)
1 | COR-L23 | 1.01 | 0.714 | 0.766 | 0.814 | 0.652 | 0.635 | 0.739 | 0.65 | 0.926 | 0.201 | 0.206 | 0.191 | 0.196 | 0.539 | 0.682 | 0.629 | 0.796
2 | UMC-11 | 0.554 | 0.469 | 0.566 | 0.467 | 0.447 | 0.933 | 1.23 | 1.06 | 1.14 | 0.73 | 0.848 | 0.755 | 0.864 | 0.534 | 0.671 | 0.578 | 0.493
3 | NCI-H2023 | 0.375 | 0.39 | 0.475 | 0.329 | 0.413 | 0.745 | 0.615 | 0.788 | 0.65 | 0.198 | 0.216 | 0.26 | 0.183 | 0.567 | 0.635 | 0.576 | 0.703
4 | NCI-H1915 | 0.693 | 0.614 | 0.602 | 0.388 | 0.326 | 0.756 | 0.782 | 0.693 | 0.829 | 0.437 | 0.428 | 0.506 | 0.497 | 0.854 | 0.916 | 0.915 | 0.882
5 | PC-14 | 1.12 | 0.811 | 0.855 | 0.741 | 0.159 | 0.171 | 0.168 | 0.105 | 0.143 | 0.105 | 0.112 | 0.14 | 0.101 | 0.787 | 0.835 | 0.909 | 0.742
6 | LCLC-97TM1 | 0.554 | 0.525 | 0.571 | 0.486 | 0.524 | 0.766 | 0.794 | 0.785 | 0.857 | 0.185 | 0.205 | 0.16 | 0.16 |  | 0.269 | 0.338 | 0.257
7 | LU99A | 0.27 | 0.317 | 0.321 | 0.283 | 0.306 | 0.215 | 0.227 | 0.271 | 0.266 | 0.169 | 0.186 | 0.168 | 0.185 | 0.548 | 0.685 | 0.501 | 0.672
8 | NCI-H2170 |  | 0.825 | 0.875 | 0.575 | 0.34 | 0.798 | 0.606 | 0.626 | 0.786 | 0.26 | 0.249 | 0.268 | 0.269 | 1.1 | 1.25 | 1.18 | 1.47
9 | HOP-62 | 1.06 | 0.854 | 0.846 | 0.773 | 0.908 | 0.837 | 0.85 | 0.987 | 1.07 | 0.262 | 0.312 | 0.345 | 0.371 | 0.781 | 1.05 | 1 | 0.875

From the supplement of paper PMC10307832
